Read-outs that look alike come from different tables or passages of the source.
Target: human PAD4 (hPAD4) (Homo sapiens, UniProt Q9UM07)
Test: RFMS Human PAD4 Functional Assay
Type: biochemical
Settings: 5 nM hPAD4, 250 μM BAEE
Method in brief: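 RapidFire ESI-MS quantification, normalised to a modified-citrulline internal standard, after phenyl glyoxal (final 4 mM) derivatisation of the TCA-quenched reaction. The enzyme (10 nM) sat 30 min with compound (up to 50 μM final) before 500 μM BAEE (as added) started a 90 min, 37 °C reaction. Buffer: HEPES pH 7.5, 50 μM calcium, 5 μM TPEN.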

[1] = hPAD4 RFMS IC50, human PAD4, rapid-fire mass spectrum (RFMS) assay
[2] = human PAD4, rapid-fire mass spectrum (RFMS) assay, read-out: hPAD4 RFMS IC50

human PAD4 (hPAD4), sequence (Q9UM07 whole entry): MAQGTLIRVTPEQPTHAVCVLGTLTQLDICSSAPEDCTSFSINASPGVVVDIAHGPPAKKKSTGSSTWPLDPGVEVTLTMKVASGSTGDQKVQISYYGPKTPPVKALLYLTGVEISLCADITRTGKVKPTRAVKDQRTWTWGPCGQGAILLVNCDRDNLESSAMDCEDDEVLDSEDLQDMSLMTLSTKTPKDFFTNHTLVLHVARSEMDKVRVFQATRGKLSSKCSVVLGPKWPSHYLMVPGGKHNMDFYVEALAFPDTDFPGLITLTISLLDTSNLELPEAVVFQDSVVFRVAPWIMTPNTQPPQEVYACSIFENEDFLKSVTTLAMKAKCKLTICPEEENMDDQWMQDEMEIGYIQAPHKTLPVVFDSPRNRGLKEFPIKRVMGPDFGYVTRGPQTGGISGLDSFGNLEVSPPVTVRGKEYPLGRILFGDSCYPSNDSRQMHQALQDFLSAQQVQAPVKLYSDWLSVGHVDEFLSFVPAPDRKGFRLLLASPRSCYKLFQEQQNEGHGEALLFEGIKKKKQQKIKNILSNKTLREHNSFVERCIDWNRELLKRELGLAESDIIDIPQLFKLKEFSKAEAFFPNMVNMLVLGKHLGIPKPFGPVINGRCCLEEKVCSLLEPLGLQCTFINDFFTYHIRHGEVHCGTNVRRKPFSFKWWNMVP

IC50 [1] [nM]	IC50 [2] [nM]	Structure (SMILES)
58		COc1cc(C(=O)N2C[C@H]3CC[C@@H]2[C@@H]3N)cc2nc(-c3cc4cccc(-c5ccc6[nH]c(=O)ccc6c5)c4n3CC3CC3)n(C)c12 [Example 100, 6-(2-{5-[(1R,4R,7R)-7-amino-2-azabicyclo[2.2.1]heptane-2-carbonyl]-7-methoxy-1-methyl-1H-1,3-benzodiazol-2-yl}-1-(cyclopropylmethyl)-1H-indol-7-yl)-1,2-dihydroquinolin-2-one]
47		COC(=O)c1cc(=O)[nH]c2ccc(-c3cccc4cc(-c5nc6cc(C(=O)N7C[C@H]8CC[C@@H]7[C@@H]8N)cc(OC)c6n5C)n(CC5CC5)c34)cc12 [Example 101, methyl 6-(2-{5-[(1R,4R,7R)-7-amino-2-azabicyclo[2.2.1]heptane-2-carbonyl]-7-methoxy-1-methyl-1H-1,3-benzodiazol-2-yl}-1-(cyclopropylmethyl)-1H-indol-7-yl)-2-oxo-1,2-dihydroquinoline-4-carboxylate]
131		COc1cc(C(=O)N2C[C@H]3CC[C@@H]2[C@@H]3N)cc2nc(-c3cc4cccc(-c5ccc6c(=O)[nH]ccc6c5)c4n3CC3CC3)n(C)c12 [Example 102, 6-(2-{5-[(1R,4R,7R)-7-amino-2-azabicyclo[2.2.1]heptane-2-carbonyl]-7-methoxy-1-methyl-1H-1,3-benzodiazol-2-yl}-1-(cyclopropylmethyl)-1H-indol-7-yl)-1,2-dihydroisoquinolin-1-one]
25		COc1cc(C(=O)N2C[C@H]3CC[C@@H]2[C@@H]3N)cc2nc(-c3cc4cccc(-c5ccc6c(c5)CNC6=O)c4n3CC3CC3)n(C)c12 [Example 103, 5-(2-{5-[(1R,4R,7R)-7-amino-2-azabicyclo[2.2.1]heptane-2-carbonyl]-7-methoxy-1-methyl-1H-1,3-benzodiazol-2-yl}-1-(cyclopropylmethyl)-1H-indol-7-yl)-2,3-dihydro-1H-isoindol-1-one]
93		COc1cc(C(=O)N2C[C@H]3CC[C@@H]2[C@@H]3N)cc2nc(-c3cc4cccc(-c5ccc(C(N)=O)c(Cl)c5)c4n3CC3CC3)n(C)c12 [Example 104, 4-(2-{5-[(1R,4R,7R)-7-amino-2-azabicyclo[2.2.1]heptane-2-carbonyl]-7-methoxy-1-methyl-1H-1,3-benzodiazol-2-yl}-1-(cyclopropylmethyl)-1H-indol-7-yl)-2-chlorobenzamide]
99		COC(=O)Nc1ccc(-c2cccc3cc(-c4nc5cc(C(=O)N6C[C@H]7CC[C@@H]6[C@@H]7N)cc(OC)c5n4C)n(CC4CC4)c23)cn1 [Example 105, methyl N-[5-(2-{5-[(1R,4R,7R)-7-amino-2-azabicyclo[2.2.1]heptane-2-carbonyl]-7-methoxy-1-methyl-1H-1,3-benzodiazol-2-yl}-1-(cyclopropylmethyl)-1H-indol-7-yl)pyridin-2-yl]carbamate]
61		COc1cc(C(=O)N2C[C@H]3CC[C@@H]2[C@@H]3N)cc2nc(-c3cc4cccc(-c5ccc(NC(C)=O)nc5)c4n3CC3CC3)n(C)c12 [Example 106, N-[5-(2-{5-[(1R,4R,7R)-7-amino-2-azabicyclo[2.2.1]heptane-2-carbonyl]-7-methoxy-1-methyl-1H-1,3-benzodiazol-2-yl}-1-(cyclopropylmethyl)-1H-indol-7-yl)pyridin-2-yl]acetamide]
	175	COc1cc(C(=O)N2C[C@H]3CC[C@@H]2[C@@H]3N)cc2nc(-c3cc4cccc(-n5cc([C@H]6CC[C@H](N)CC6)nn5)c4n3CC3CC3)n(C)c12 [Example 109, (1R,4R,7R)-2-{2-[1-(cyclopropylmethyl)-7-{4-[(1r,4r)-4-aminocyclohexyl]-1H-1,2,3-triazol-1-yl}-1H-indol-2-yl]-7-methoxy-1-methyl-1H-1,3-benzodiazole-5-carbonyl}-2-azabicyclo[2.2.1]heptan-7-amine]
	137	COc1cc(C(=O)N2C[C@H]3CC[C@@H]2[C@@H]3N)cc2nc(-c3cc4cccc(-n5cc(C6CNC6)nn5)c4n3CC3CC3)n(C)c12 [Example 110, (1R,4R,7R)-2-(2-{7-[4-(azetidin-3-yl)-1H-1,2,3-triazol-1-yl]-1-(cyclopropylmethyl)-1H-indol-2-yl}-7-methoxy-1-methyl-1H-1,3-benzodiazole-5-carbonyl)-2-azabicyclo[2.2.1]heptan-7-amine]
	20	COc1cc(C(=O)N2C[C@H]3CC[C@@H]2[C@@H]3N)cc2nc(-c3cc4cccc(-c5ccc(O)c(CO)c5)c4n3CC3CC3)n(C)c12 [Example 119, ((1R,4R,7R)-7-amino-2-azabicyclo[2.2.1]heptan-2-yl)(2-(1-(cyclopropylmethyl)-7-(4-hydroxy-3-(hydroxymethyl)phenyl)-1H-indol-2-yl)-7-methoxy-1-methyl-1H-benzo[d]imidazol-5-yl)methanone]
	65	COc1cc(C(=O)N2C[C@H]3CC[C@@H]2[C@@H]3N)cc2nc(-c3cc4cccc(-c5ccc(O)c(C(N)=O)c5)c4n3CC3CC3)n(C)c12 [Example 120, 5-(2-(5-((1R,4R,7R)-7-amino-2-azabicyclo[2.2.1]heptane-2-carbonyl)-7-methoxy-1-methyl-1H-benzo[d]imidazol-2-yl)-1-(cyclopropylmethyl)-1H-indol-7-yl)-2-hydroxybenzamide]
	753	COc1cc(C(=O)N2C[C@H]3CC[C@@H]2[C@@H]3N)cc2nc(-c3cc4cccc(-c5ccc(O)c(C(=O)O)c5)c4n3CC3CC3)n(C)c12 [Example 121, 5-(2-(5-((1R,4R,7R)-7-amino-2-azabicyclo[2.2.1]heptane-2-carbonyl)-7-methoxy-1-methyl-1H-benzo[d]imidazol-2-yl)-1-(cyclopropylmethyl)-1H-indol-7-yl)-2-hydroxybenzoic Acid]
	57	COc1cc(C(=O)N2C[C@H]3CC[C@@H]2[C@@H]3N)cc2nc(-c3cc4cccc(-c5cnn(C)c5)c4n3CC3CC3)n(C)c12 [Example 122, ((1R,4R,7R)-7-amino-2-azabicyclo[2.2.1]heptan-2-yl)(2-(1-(cyclopropylmethyl)-7-(1-methyl-1H-pyrazol-4-yl)-1H-indol-2-yl)-7-methoxy-1-methyl-1H-benzo[d]imidazol-5-yl)methanone]
84		CCOC(=O)c1ccccc1-c1cccc2cc(-c3nc4cc(C(=O)N5C[C@H]6CC[C@@H]5[C@@H]6N)cc(OC)c4n3C)n(CC3CC3)c12 [Example 123, ethyl 2-(2-(5-((1R,4R,7R)-7-amino-2-azabicyclo[2.2.1]heptane-2-carbonyl)-7-methoxy-1-methyl-1H-benzo[d]imidazol-2-yl)-1-(cyclopropylmethyl)-1H-indol-7-yl)benzoate]
25		COc1cc(C(=O)N2C[C@H]3CC[C@@H]2[C@@H]3N)cc2nc(-c3cc4cccc(-c5ccc(C(N)=O)cc5)c4n3CC3CC3)n(C)c12 [Example 124, 4-(2-(5-((1R,4R,7R)-7-amino-2-azabicyclo[2.2.1]heptane-2-carbonyl)-7-methoxy-1-methyl-1H-benzo[d]imidazol-2-yl)-1-(cyclopropylmethyl)-1H-indol-7-yl)benzamide]
125		COc1cc(C(=O)N2C[C@H]3CC[C@@H]2[C@@H]3N)cc2nc(-c3cc4cccc(-c5ccc(C(=O)N(C)C)cc5)c4n3CC3CC3)n(C)c12 [Example 125, 4-(2-(5-((1R,4R,7R)-7-amino-2-azabicyclo[2.2.1]heptane-2-carbonyl)-7-methoxy-1-methyl-1H-benzo[d]imidazol-2-yl)-1-(cyclopropylmethyl)-1H-indol-7-yl)-N,N-dimethylbenzamide]
110		COc1cc(C(=O)N2CC3CCC2[C@@H]3N)cc2nc(-c3cc4cccc(-c5ccc6ccn(C)c6c5)c4n3CC3CC3)n(C)c12 (stereo partly drawn) [Example 126, ((7R)-7-amino-2-azabicyclo[2.2.1]heptan-2-yl)(2-(1′-(cyclopropylmethyl)-1-methyl-1H,1′H-[6,7′-biindol]-2′-yl)-7-methoxy-1-methyl-1H-benzo[d]imidazol-5-yl)methanone]
82		COc1cc(C(=O)N2C[C@H]3CC[C@@H]2[C@@H]3N)cc2nc(-c3cc4cccc(-c5cc[nH]n5)c4n3CC3CC3)n(C)c12 [Example 127, ((1R,4R,7R)-7-amino-2-azabicyclo[2.2.1]heptan-2-yl)(2-(1-(cyclopropylmethyl)-7-(1H-pyrazol-3-yl)-1H-indol-2-yl)-7-methoxy-1-methyl-1H-benzo[d]imidazol-5-yl)methanone]
130		C#CCOCC(O)Cn1cc(-c2cccc3cc(-c4nc5cc(C(=O)N6CC7CCC6[C@@H]7N)cc(OC)c5n4C)n(CC4CC4)c23)cn1 (stereo partly drawn) [Example 128, ((7R)-7-amino-2-azabicyclo[2.2.1]heptan-2-yl)(2-(1-(cyclopropylmethyl)-7-(1-(2-hydroxy-3-(prop-2-yn-1-yloxy)propyl)-1H-pyrazol-4-yl)-1H-indol-2-yl)-7-methoxy-1-methyl-1H-benzo[d]imidazol-5-yl)methanone]
194		COc1cc(C(=O)N2CC3CCC2[C@@H]3N)cc2nc(-c3cc4cccc(-c5ccoc5)c4n3CC3CC3)n(C)c12 (stereo partly drawn) [Example 129, ((7R)-7-amino-2-azabicyclo[2.2.1]heptan-2-yl)(2-(1-(cyclopropylmethyl)-7-(furan-3-yl)-1H-indol-2-yl)-7-methoxy-1-methyl-1H-benzo[d]imidazol-5-yl)methanone]

Structure (SMILES)	IC50 [1] [nM]	IC50 [2] [nM]
CCOP(=O)(OCC)c1cccc2cc(-c3nc4cc(C(=O)N5C[C@H]6CC[C@@H]5[C@@H]6N)cc(OC)c4n3C)n(CC3CC3)c12 [Example 107, diethyl (2-{5-[(1R,4R,7R)-7-amino-2-azabicyclo[2.2.1]heptane-2-carbonyl]-7-methoxy-1-methyl-1H-1,3-benzodiazol-2-yl}-1-(cyclopropylmethyl)-1H-indol-7-yl)phosphonate]		86

Reference: patent US20220402950A1, “SUBSTITUTED BENZIMIDAZOLES AS PAD4 INHIBITORS” (BRISTOL-MYERS SQUIBB COMPANY, priority 2018, published 2022)
